In patent US9655828B2, “Glucuronolactone derivatives as self-tanning substances” (Merck Patent GmbH, priority 2013, dated 2017):

How the values were obtained:
[1] = Liquid skin model (reaction with L-lysine, L*a*b* values); conditions: for L* / a* / b*: 1 mmol substance + 1 mmol L-lysine in 100 ml phosphate-buffered water (pH=7)/ethylene glycol 6:94; for L* / a* / b* / L values compared with erythrulose or glucuronolactone: after 24 hours; for hue achieved: conclusion from a values
Procedure: The mixture is subsequently made up to the mark with a mixture of 6 ml of phosphate-buffered water (pH=7) and 94 ml of ethylene glycol. The reaction is observed with vigorous stirring, and the L*a*b* values are determined after 24 hours.

[2] = test system: histological explants from lower abdomen tissue; assay: Ex-vivo study: chromametric measurement of skin explants (ITA); design: species or system human; conditions: 4% substance, 30 μl applied daily for 2 h
Procedure: 24 histological explants having an average diameter of 10 mm are prepared from the lower abdomen tissue of a person. The pieces of tissue are kept in BEM medium (BIO-EC's Explants Medium) at 37° C. in a humid atmosphere comprising 5% of CO2.
The tissue is divided into 8 batches of 3 explants each: • A negative control (untreated sample, treated only with the vehicle Mygliol)→E • A positive control (4% dihydroxyacetone)→R1 • A positive control (4% erythrulose)→R2 • Glucuronolactone (4%)→P1 • Compound of the formula (Ig) (4%)→P2 • Compound of the formula (Ia) (4%)→P3
30 μl of the substance solutions are applied on 10 consecutive days using a round filter paper and left to act for 2 h. On days 1, 3 and 7, the explants are measured chromametrically.
The colour measurements are carried out using a Minolta CR-300 Chroma-meter, and the L, a and b values are read off correspondingly on the instrument.
In 1931, a test series was carried out by the CIE (Commision Internationale de L'Eclairage), where the “2-degree standard observer” was defined. A colour area is present here which is viewed at a viewing angle of 2 degrees. This viewing angle is used as standard in the chromametric measurement. • Irradiation source D65, corresponding to daylight • Region of the measurement: 3 mm • Parameters used: L*a*b*
The sample is placed on the bearing rail with the epidermis facing downwards. The irradiation is carried out from the underside through the area indicated (3 mm).
In the colorimetric determinations <<L a b>>, the L value determines the contrast of the skin. If the L value drops, the skin appears darker.
ITA is defined as arctang[(L-50)/b]. If the ITA index increases, the skin appears paler.

[3] = Colouring test on merino wool balls; conditions: 1 mmol substance in 100 ml buffer (pH 7)/ethylene glycol 6:94, RT, 24 h, then washed and dried; compared with untreated sample
Procedure: In each case, 1 mmol of the substance to be tested are weighed out into a 100 ml conical flask with ground-glass joint:
A merino wool ball with the size of a grape and a magnetic stirrer are then added to each conical flask.
A mixture of 6% by vol. of buffer (ph7) and 94% by vol. of ethylene glycol is then prepared, 100 ml of this mixture are added to each conical flask and stirred at RT for 24 h.
After 24 h, the wool balls are washed firstly with water, then with warm washing-powder solution and again with water and dried.
This colouring result can also be applied to hair, since merino wool, like hair, is built up from proteins (keratins) and the outermost layer is in each case the cuticle.

SMILES	L* [1]	a* [1]	b* [1]	Day 1 (ITA value) [2]	Day 3 (ITA value) [2]	Day 7 (ITA value) [2]	coloration of wool samples [3]	colour effect compared with erythrulose or glucuronolactone ([1]; identical concentration in the test formulation, in words)	L values compared with erythrulose or glucuronolactone ([1]; in words)	hue achieved ([1]; in words)
O=C(CO)[C@H](O)CO [Erythrulose]	93.50	−4.40	32.66	4%	−4%	4%	–	–	–	–
O=C[C@H](O)[C@H]1OC(=O)[C@@H](O)[C@H]1O [Glucuronolactone]	94.30	−6.94	38.68	10%	4%	−2%	very pale-yellow coloration	comparable colour effect to erythrulose	–	–
COc1ccc(/C=C/C(=O)OC2C(=O)OC3C4OC(C)(C)OC4OC23)cc1 (centres unmarked) [Compound (Ia), 2,2-Dimethyl-5-oxohexahydrofuro[2′,3′:4,5]furo[2,3-d]-1,3-dioxol-6-yl(E)-3-(4-methoxyphenyl)acrylate]	66.34	34.88	105.16	−6%	−5%	−10%	orange-yellow coloration	–	lower L values than erythrulose or glucuronolactone	shifted more towards red
CC1(C)OC2OC3C(OC(=O)c4ccccc4)C(=O)OC3C2O1 (centres unmarked) [Compound (Ig)]	64.09	36.87	103.8	–	–	–	yellow coloration	–	lower L values than erythrulose or glucuronolactone	shifted more towards red
CC(=O)OC1C(=O)OC2C3OC(C)(C)OC3OC12 (centres unmarked) [Compound (Io), 2,2-Dimethyl-5-oxohexahydrofuro[2′,3′:4,5]furo[2,3-d]-1,3-dioxol-6-yl acetate]	87.51	2.41	92.10	–	–	–	pale-yellow coloration	–	lower L values than erythrulose or glucuronolactone	–
O=C(CO)CO [DHA, 1,3-dihydroxyacetone]	34.95	24.91	57.45	−3%	0%	−1%	no coloration	–	–	–
